Read-outs that look alike come from different tables or passages of the source.
Tested on: 60 different human tumor cell lines
Details: five dose; for CC50: read-out: LC50

C[C@]12CCc3nc(Nc4ccc(O)cc4)sc3C1=CC[C@@H]1[C@@H]2CC[C@]2(C)C(=O)CC[C@@H]12 [IIa.35]
TGI (OVCAR-8 (Ovarian Cancer)): >1.00E−4
GI50 (PC-3 (Prostate Cancer)): 2.49 µM
TGI (PC-3 (Prostate Cancer)): 8.15E−6
GI50 (RXF 393 (Renal Cancer)): 1.78 µM
TGI (RXF 393 (Renal Cancer)): 4.14E−6
GI50 (SF-268 (CNS Cancer)): 3.37 µM
TGI (SF-268 (CNS Cancer)): 4.00E−4
GI50 (SK-MEL-2 (Melanoma)): 6.98 µM
TGI (SK-MEL-2 (Melanoma)): >1.00E−4
GI50 (SK-MEL-5 (Melanoma)): 4.33 µM
TGI (SK-MEL-5 (Melanoma)): 3.19E−5
GI50 (SK-MEL-28 (Melanoma)): 2.08 µM
TGI (SK-MEL-28 (Melanoma)): 4.75E−6
GI50 (SK-OV-3 (Ovarian Cancer)): 12.3 µM
TGI (SK-OV-3 (Ovarian Cancer)): >1.00E−4
GI50 (SN12C (Renal Cancer)): 2.91 µM
TGI (SN12C (Renal Cancer)): >1.00E−4
GI50 (SNB-19 (CNS Cancer)): 10.9 µM
TGI (SNB-19 (CNS Cancer)): >1.00E−4
GI50 (SNB-75 (CNS Cancer)): 2.76 µM
TGI (SNB-75 (CNS Cancer)): >1.00E−4
GI50 (SW-620 (Colon Cancer)): 2.08 µM
TGI (SW-620 (Colon Cancer)): 4.73E−6
GI50 (T-47D (Breast Cancer)): 1.95 µM
TGI (T-47D (Breast Cancer)): 5.03E−6
GI50 (TK-10 (Renal Cancer)): 2.01 µM
TGI (TK-10 (Renal Cancer)): 4.40E−6
GI50 (U251 (CNS Cancer)): 3.06 µM
TGI (U251 (CNS Cancer)): 2.19E−5
GI50 (UACC-62 (Melanoma)): 1.76 µM
TGI (UACC-62 (Melanoma)): 4.02E−6
GI50 (UACC-257 (Melanoma)): 1.86 µM
TGI (UACC-257 (Melanoma)): 4.62E−6
GI50 (UO-31 (Renal Cancer)): 1.54 µM
TGI (UO-31 (Renal Cancer)): 2.90E−6
CC50 (A498 (Renal Cancer)): > 100 µM
CC50 (A549/ATCC (Non-small Cell Lung Cancer)): > 100 µM
CC50 (ACHN (Renal Cancer)): 36.6 µM
CC50 (BT-549 (Breast Cancer)): > 100 µM
CC50 (CCRF-CEM (Leukemia)): > 100 µM
CC50 (COLO 205 (Colon Cancer)): 7.61 µM
CC50 (EKVX (Non-small Cell Lung Cancer)): > 100 µM
CC50 (HCC-2998 (Colon Cancer)): > 100 µM
CC50 (HCT-15 (Colon Cancer)): > 100 µM
CC50 (HL-60(TB) (Leukemia)): > 100 µM
CC50 (HOP-62 (Non-small Cell Lung Cancer)): > 100 µM
CC50 (HOP-92 (Non-small Cell Lung Cancer)): > 100 µM
CC50 (HT29 (Colon Cancer)): > 100 µM
CC50 (IGROV1 (Ovarian Cancer)): > 100 µM
CC50 (K-562 (Leukemia)): > 100 µM
CC50 (M14 (Melanoma)): > 100 µM
CC50 (MALME-3M (Melanoma)): 8.96 µM
CC50 (MCF7 (Breast Cancer)): > 100 µM
CC50 (MDA-MB-231/ATCC (Breast Cancer)): > 100 µM
CC50 (MDA-MB-435 (Melanoma)): > 100 µM
CC50 (MDA-MB-468 (Breast Cancer)): > 100 µM
CC50 (MOLT-4 (Leukemia)): > 100 µM
CC50 (NCI-H23 (Non-small Cell Lung Cancer)): > 100 µM
CC50 (NCI-H226 (Non-small Cell Lung Cancer)): > 100 µM
CC50 (NCI-H460 (Non-small Cell Lung Cancer)): > 100 µM
CC50 (NCI-H522 (Non-small Cell Lung Cancer)): 6.18 µM
CC50 (NCI/ADR-RES (Ovarian Cancer)): > 100 µM
CC50 (OVCAR-3 (Ovarian Cancer)): 6.7 µM
CC50 (OVCAR-4 (Ovarian Cancer)): > 100 µM
CC50 (OVCAR-5 (Ovarian Cancer)): > 100 µM
CC50 (OVCAR-8 (Ovarian Cancer)): > 100 µM
CC50 (PC-3 (Prostate Cancer)): > 100 µM
CC50 (SF-268 (CNS Cancer)): > 100 µM
CC50 (SK-MEL-2 (Melanoma)): > 100 µM
CC50 (SK-MEL-5 (Melanoma)): > 100 µM
CC50 (SK-MEL-28 (Melanoma)): > 100 µM
CC50 (SK-OV-3 (Ovarian Cancer)): > 100 µM
CC50 (SN12C (Renal Cancer)): > 100 µM
CC50 (SNB-19 (CNS Cancer)): > 100 µM
CC50 (SNB-75 (CNS Cancer)): > 100 µM
CC50 (SW-620 (Colon Cancer)): > 100 µM
CC50 (T-47D (Breast Cancer)): > 100 µM
CC50 (TK-10 (Renal Cancer)): 9.6 µM
CC50 (U251 (CNS Cancer)): > 100 µM
CC50 (UACC-62 (Melanoma)): 9.19 µM
CC50 (UACC-257 (Melanoma)): > 100 µM
CC50 (UO-31 (Renal Cancer)): 9.49 µM

From patent US20250296953A1, “3,4-THIAZOLO-STEROIDS AND METHODS OF MAKING AND USING THE SAME” (Arkansas State University - Jonesboro, priority 2018, published 2025)
